Experimental data: US20250230193A1, “CYCLIC COMPOUND HAVING SELECTIVE KRAS INHIBITORY EFFECT ON HRAS AND NRAS” (CHUGAI SEIYAKU KABUSHIKI KAISHA, priority 2022, published 2025)
Where a SMILES comes first, the peptide text is derived from it. Bridges are numbered along the chain shown (N, C = ends). [ ]: non-standard residue; d: D form. The star is where a group is joined. hPhe(3,5-F2-4-CF3) = N[C@@H](CCc1cc(F)c(C(F)(F)F)c(F)c1)C(=O)O; NPrPhe(4-CF3) = CCCN[C@@H](Cc1ccc(C(F)(F)F)cc1)C(=O)O; NMeGly(cPent) = CN[C@H](C(=O)O)C1CCCC1; NMeD = CN[C@@H](CC(=O)O)C(=O)O; NMeL = CN[C@@H](CC(C)C)C(=O)O; Morpholide = C1CN(*)CCO1; Ac5c = NC1(C(=O)O)CCCC1; Aze = O=C(O)[C@@H]1CCN1; Sar = CNCC(=O)O

Tests used:
[1] = biological target: GDP-bound HRAS wild-type protein (Homo sapiens, UniProt P01112); assay: Binding to HRAS by surface plasmon resonance (SPR), Single Cycle Kinetics; details: SPR
[2] = biological target: GDP-bound NRAS wild-type protein (Homo sapiens, UniProt P01111); assay: Binding to NRAS by surface plasmon resonance (SPR), Single Cycle Kinetics; details: SPR
[3] = KD ratio, GDP-bound HRAS wild-type vs GDP-bound KRAS wild-type
[4] = KD ratio, GDP-bound NRAS wild-type vs GDP-bound KRAS wild-type

Sequence of GDP-bound NRAS wild-type protein (P01111 whole entry): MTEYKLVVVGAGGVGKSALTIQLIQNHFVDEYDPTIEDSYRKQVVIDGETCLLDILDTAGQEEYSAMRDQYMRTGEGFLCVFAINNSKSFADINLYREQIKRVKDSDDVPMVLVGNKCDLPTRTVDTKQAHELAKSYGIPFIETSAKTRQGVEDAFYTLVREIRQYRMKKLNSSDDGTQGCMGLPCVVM
Sequence of GDP-bound HRAS wild-type protein (P01112 whole entry): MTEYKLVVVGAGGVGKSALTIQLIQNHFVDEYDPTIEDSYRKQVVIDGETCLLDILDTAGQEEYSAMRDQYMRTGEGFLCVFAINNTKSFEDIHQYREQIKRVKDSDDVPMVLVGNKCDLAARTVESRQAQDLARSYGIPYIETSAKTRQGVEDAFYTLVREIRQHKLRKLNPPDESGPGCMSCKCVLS

## CC[C@H](C)[C@@H]1NC(=O)[C@H](CC(C)C)N(C)C(=O)C[C@@H](C(=O)N2CCOCC2)N(CC)C(=O)[C@H](C2CCCC2)N(C)C(=O)C2(CCC2)NC(=O)[C@@H]2CC(F)(F)CN2C(=O)[C@H](CCc2cc(F)c(C(F)(F)F)c(F)c2)NC(=O)CN(C)C(=O)[C@H](Cc2ccc(C(F)(F)F)cc2)N2CCCCC[C@@H](C2=O)N(C)C(=O)CN(C)C1=O [PP0954]
[1]; [3]
  HRAS/KRAS (ratio of KD value with respect to HRAS to KD value with respect to KRAS): A (a compound having 10 or more and less than 20 is denoted as A)
[2]; [4]
  NRAS/KRAS (ratio of KD value with respect to NRAS to KD value with respect to KRAS): A (a compound having 10 or more and less than 20 is denoted as A)

## CCC[C@H]1C(=O)N[C@@H]([C@@H](C)CC)C(=O)N(C)CC(=O)N(C)[C@H]2C/C=C\CCN(C2=O)[C@@H](Cc2ccc(C)cc2)C(=O)N(C)CC(=O)N[C@@H](CCc2ccc(C(F)(F)F)c(OC)c2)C(=O)N2C[C@@H](C)C[C@H]2C(=O)NC2(CCC2)C(=O)N(C)[C@@H](C2CCCC2)C(=O)N(C)[C@H](C(=O)N(C)CC)CC(=O)N1C [PP1840]
[1]; [3]
  HRAS/KRAS (ratio of KD value for HRAS to KD value for KRAS): B (a compound having 3 or more and less than 10 is denoted as B)
[2]; [4]
  NRAS/KRAS (ratio of KD value for NRAS to KD value for KRAS): A (a compound having 10 or more and less than 20 is denoted as A)

## CC[C@H](C)[C@@H]1NC(=O)[C@H](CC(F)(F)F)N(C)C(=O)C[C@@H](C(=O)N(C)C)N(C)C(=O)[C@H](C2CCCC2)N(C)C(=O)C2(CC(C)(C)C2)NC(=O)[C@@H]2C[C@@H](F)CN2C(=O)[C@H](CCc2cc(F)c(C(F)(F)F)c(F)c2)NC(=O)CN(C)C(=O)[C@H](Cc2ccc(C(F)(F)F)cc2)N2CC/C=C\C[C@@H](C2=O)N(C)C(=O)CN(C)C1=O [PP1688]
[1]; [3]
  HRAS/KRAS (ratio of KD value for HRAS to KD value for KRAS): A (a compound having 10 or more and less than 20 is denoted as A)
[2]; [4]
  NRAS/KRAS (ratio of KD value for NRAS to KD value for KRAS): A (a compound having 10 or more and less than 20 is denoted as A)

## CCO[C@@H]1C[C@H]2C(=O)NC3(CCC3)C(=O)N(C)[C@@H](C3CCCC3)C(=O)N(C)[C@H](C(=O)N(C)C)CC(=O)N(C)[C@@H](Cc3ccccc3)C(=O)N[C@@H]([C@@H](C)CC)C(=O)N(C)CC(=O)N(C)[C@H]3CCCCCN(C3=O)[C@@H](Cc3ccc(C(F)(F)F)cc3)C(=O)N(C)CC(=O)N[C@@H](CCc3cc(F)c(C(F)(F)F)c(F)c3)C(=O)N2C1 [PP0672]
[1]; KD ratio HRAS/KRAS
  HRAS/KRAS (ratio of KD value with respect to GDP-bound HRAS wild-type protein to KD value with respect to KRAS): B (a compound having 3 or more and less than 10 is denoted as B)
[2]; KD ratio NRAS/KRAS
  NRAS/KRAS (ratio of KD value with respect to GDP-bound NRAS wild-type protein to KD value with respect to KRAS): B (a compound having 3 or more and less than 10 is denoted as B)

## CCC[C@H]1C(=O)N[C@@H]([C@@H](C)CC)C(=O)N(C)CC(=O)N(C)[C@H]2C/C=C\CCN(C2=O)[C@@H](Cc2ccc(C(F)(F)F)cc2)C(=O)N(C)CC(=O)N[C@@H](CCc2ccc(C(F)(F)F)c(Cl)c2)C(=O)N2C[C@H](OCC)C[C@H]2C(=O)NC2(CC(C)(C)C2)C(=O)N(C)[C@@H](CC(F)(F)F)C(=O)N(C)[C@H](C(=O)N(C)C)CC(=O)N1C [PP2975]
[1]; KD ratio HRAS/KRAS, GDP-bound wild-type proteins
  HRAS/KRAS (ratio of KD value with respect to GDP-bound HRAS wild-type protein to KD value with respect to KRAS): A (a compound having 10 or more and less than 20 is denoted as A)
[2]; KD ratio NRAS/KRAS, GDP-bound wild-type proteins
  NRAS/KRAS (ratio of KD value with respect to GDP-bound NRAS wild-type protein to KD value with respect to KRAS): A (a compound having 10 or more and less than 20 is denoted as A)

## CC[C@H](C)[C@@H]1NC(=O)[C@H](CC(C)C)N(C)C(=O)C[C@@H](C(=O)N2CCOCC2)N(C)C(=O)[C@H](C2CCCC2)N(C)C(=O)C2(CCCC2)NC(=O)[C@@H]2CCCN2C(=O)[C@H](CCc2ccc(C(F)(F)F)c(Cl)c2)NC(=O)CN(C)C(=O)[C@H](Cc2ccc(C(F)(F)F)cc2)N2CCCCC[C@@H](C2=O)N(C)C(=O)CN(C)C1=O (stereo in doubt) [PP0319]
[1]; KD ratio HRAS/KRAS
  HRAS/KRAS (ratio of KD for GDP-bound HRAS wild-type to KD for KRAS): B (a compound having 3 or more and less than 10 is denoted as B)
[2]; KD ratio NRAS/KRAS
  NRAS/KRAS (ratio of KD for GDP-bound NRAS wild-type to KD for KRAS): B (a compound having 3 or more and less than 10 is denoted as B)

## CC[C@H](C)[C@@H]1NC(=O)[C@H](CC2CC2)N(C)C(=O)C[C@@H](C(=O)N(C)CC)N(C)C(=O)[C@H](C2CCCC2)N(C)C(=O)C2(CCC2)NC(=O)[C@@H]2CC(F)(F)CN2C(=O)[C@H](CCc2cc(F)c(C(F)(F)F)c(F)c2)NC(=O)CN(C)C(=O)[C@H](Cc2ccc(C(F)(F)F)cc2)N2CC/C=C\C[C@@H](C2=O)N(C)C(=O)CN(C)C1=O [PP1538]
[1]; KD ratio class
  HRAS/KRAS (ratio of KD value for GDP-bound HRAS wild-type protein to KD value for KRAS): B (a compound having 3 or more and less than 10 is denoted as B)
[2]; KD ratio class
  NRAS/KRAS (ratio of KD value for GDP-bound NRAS wild-type protein to KD value for KRAS): A (a compound having 10 or more and less than 20 is denoted as A)

## CCCN1C(=O)CN(C)C(=O)[C@@H]2CCN2C(=O)[C@H]([C@@H](C)CC)NC(=O)[C@H](CC(C)C)N(C)C(=O)C[C@@H](C(=O)N2CCOCC2)N(C)C(=O)[C@H](C2CCCC2)N(C)C(=O)C2(CCCC2)NC(=O)[C@@H]2CCCN2C(=O)[C@H](CCc2cc(F)c(C(F)(F)F)c(F)c2)NC(=O)CN(C)C(=O)[C@@H]1Cc1ccc(C(F)(F)F)cc1 [PP0770] ([NMeL]I[Aze][Sar][NPrPhe(4-CF3)][Sar][hPhe(3,5-F2-4-CF3)]P[Ac5c][NMeGly(cPent)][NMeD]-Morpholide; lactam N-11)
[1]; KD ratio HRAS/KRAS
  HRAS/KRAS (ratio of KD value with respect to GDP-bound HRAS wild-type protein to KD value with respect to KRAS): B (a compound having 3 or more and less than 10 is denoted as B)
[2]; KD ratio NRAS/KRAS
  NRAS/KRAS (ratio of KD value with respect to GDP-bound NRAS wild-type protein to KD value with respect to KRAS): B (a compound having 3 or more and less than 10 is denoted as B)
